Results: paper PMC4911353, “Pharmacologic Inhibition of Host Phosphodiesterase-4 Improves Isoniazid-Mediated Clearance of Mycobacterium tuberculosis” (Frontiers in Immunology, 2016)

What was measured:
[1] = tested on: Mycobacterium tuberculosis CDC1551; assay type: in vivo; settings: B6D2F1 mice, 50 mg/kg daily
lung granulomas = assay: Histology and morphometric measurement of lung granulomas in Mtb-infected mice; assay type: in vivo
Description: Formalin-fixed lung tissues of Mtb-infected mice were paraffin-embedded, cut into […] sections, and stained with hematoxylin and eosin (H&E) or acid fast staining by Ziehl–Neelsen (ZN) method to visualize host cells and Mtb, respectively (IDEXX-RADIL Laboratories Inc., MO, USA) as described in Ref. ([11]). Stained sections were photographed in a Nikon Microphot-FX photomicrographic system and analyzed with NIS-Elements F3.0 software (Nikon Instruments Inc., NY, USA). Lung granuloma size was morphometrically measured using PathScan Enabler IV scanner (Meyer Instruments, Houston, TX, USA) and SigmaScan Pro software (Systat Software, Inc., CA, USA). Histopathologic analysis and morphometry were performed by an experienced pathologist blinded to the sample identity.

Mtb = settings: mouse pulmonary TB model; cited from earlier work

Structure (SMILES)	Change in lung CFUs from 84 to 112 days postinfection [1]	Lesion area (granuloma size) versus untreated mice (lung granulomas; 28 days postinfection)	Granuloma size versus untreated group (lung granulomas; 112 days postinfection)	Impact on antibiotic-mediated bacillary clearance (Mtb)
NNC(=O)c1ccncc1 [INH, isoniazid]	no significant decline	significant differences	significant reduction	
COc1ccc(C2CNC(=O)C2)cc1OC1CCCC1 (centres unmarked) [rolipram]				no impact
COc1ccc([C@]2(C#N)CC[C@@H](C(=O)O)CC2)cc1OC1CCCC1 [cilomilast]				no impact
